From patent US10813891B2, “Method of inhibiting chronification of pain” (priority 2011, dated 2020)
Several values for one entry are separate records, joined by “and”; a condition that tells them apart may be missing. Equal values may be shown once.

Legend:
CCI-SN rats = test: Paw pressure (Randall-Selitto) test in CCI-SN rats; format: in vivo, rat; details: 10 mg/kg i.p.
Description: Male Sprague-Dawley rats (Charles River Laboratories, L'Arbresle, France), weighing 150-200 g on arrival, were used. Animals were maintained under controlled environmental conditions (22±1° C., 60% relative humidity, 12 h/12 h light/dark cycle, food and water ad libitum) starting from reception in the laboratory, for at least 1 week before any intervention or treatment and thereafter, until euthanasia.
Rats were anaesthetized as above and the common sciatic nerve was exposed. Using a dissection microscope (2× magnification), four chromic catgut (5-0) ligations were tied loosely with about 1 mm spacing, proximally to the sciatic trifurcation (Bennett and Xie, 1988). Finally, the skin and muscle were sewed using silk sutures (4-0). In sham-operated animals, the same surgery was performed, but the nerve was not ligated.
Tapentadol (1, 3 and 10 mg/kg i.p.), reboxetine (10 mg/kg i.p.), morphine (1 and 3 mg/kg s.c.) or their vehicle (0.9% NaCl) were injected acutely 14 days after surgery, when allodynia/hyperalgesia reached a plateau in both CCI-SN and CCI-ION rats. Behavioral tests were performed at various times for up to 4 h after injection. In drug association procedure, reboxetine or saline was administered 15 min before morphine or saline.

[1] = test system: male albino rats (Sprague Dawley) with paw incision; test: Paw incision model for postoperative pain (electronic von Frey, tactile withdrawal threshold); format: in vivo, rat
Source text: Post operative, incisional pain is a common form of persistent, acute pain. Brennan et al. (Brennan T J, Vandermeulen E P, and Gebhart G F. Characterization of a rat model of incisional pain. Pain 1996; 64:493-501) developed a post operative model in rats with surgical intervention on the plantar surface of the hind foot for the evaluation of novel analgesic therapeutics. A surgical incision of the rat foot causes a reliable and quantifiable tactile hypersensitivity during the initial post operative period and lasting for several days after surgery. This model may thus be useful for predicting analgesia by investigational agents for post operative pain.
The experiments were carried out in male albino rats (Sprague Dawley) with 170 g-230 g body weight from a commercial breeder (Charles River, Germany). Surgery was performed as previously described. Brennan et al. (Brennan T J, Vandermeulen E P, and Gebhart G F. Characterization of a rat model of incisional pain. Pain 1996; 64:493-501). Briefly, rats were anaesthetised with isoflurane, and a 1 cm longitudinal incision was made, through skin and fascia of the plantar aspect of the foot, starting from the proximal edge of the heel and extending toward the metatarsal toes. The plantaris muscle was elevated and incised longitudinally. The muscle origin and insertion remained intact. After spreading of the muscle and haemostasis with gentle pressure, the skin was closed with two single interrupted sutures. After surgery, the rats were allowed to recover in their home cages and the animals regained consciousness within 2 to 5 minutes. In order to ensure a complete recovery from anaesthesia the baseline value of each individual animal was recorded not until 2 hours after surgery.
The rats were placed in a plastic cage with a wire mesh bottom which allowed full access to the paws. Hind paw withdrawal threshold after mechanical stimulation was tested with electronic von Frey hairs (Somedic Sales AB, Hörby, Sweden). Ten rats were used per experimental group. Animals were placed in a plastic cage with a wire mesh bottom which allowed full access to the paws. Behavioral accommodation was allowed for 30 min. In each case, withdrawal response was measured at an area adjacent to the wound (ipsilateral) and to the same area on the non-injured foot (contralateral). Two hours after surgery, primary hypersensitivity was tested as tactile withdrawal threshold (tactile hyperalgesia) shortly before drug administration and at different time points after drug application. Animals injected with vehicle served as controls. The pretest measurement was made prior to surgery and two thresholds were taken per test and averaged. Ten rats were used per experimental group. Tactile withdrawal threshold was measured pre and after substance administration from day 1 to day 5 post surgery. From day 6 to day 13 post surgery the withdrawal threshold was measured without substance administration (wash out phase). The efficacy was expressed as MPE %=% of maximal possible effect, whereas MPE is defined as 100% reversal of tactile hyperalgesia compared to vehicle group.
Tapentadol at the dose of 14.7 mg/kg intraperitoneal route (i.p.) was adminstered twice daily (BID) (7 a.m./7 p.m.) throughout day 1 to day 5. The first administration was given 20 min before surgery on day 1. From day 6 to day 13 no substance was given (wash out phase) The study scheme is schematically illustrated in FIG. 1.

For `CC[C@@H](c1cccc(O)c1)[C@@H](C)CN(C)C` [Tapentadol, (−)-(1R,2R)-3-(3-dimethylamino-1-ethyl-2-methyl-propyl)-phenol], the “duration of increase in pressure threshold values” (CCI-SN rats) was “at least 60 min”, the “pressure threshold values to trigger vocalization, vs untreated healthy rats” value (CCI-SN rats; first 45 min after administration) was “+20%” and the “pressure threshold values to cause hindpaw withdrawal” value (CCI-SN rats; first hour after treatment, vs intact healthy rats) was “did not significantly differ from those determined in intact healthy rats”. The “effect on sustained tactile hyperalgesia following surgical lesion” value ([1]; 14.7 mg/kg i.p. BID day 1-5, washout day 6-13) was “outlasts treatment duration”, the “MPE % (reversal of tactile hyperalgesia)” value ([1]; 14.7 mg/kg i.p. BID day 1-5, d 2_0.5 h (0.5 h after treatment on day 2 after surgery)) was 38.3±5.48% and 38.3 ± 4.58 % and the “MPE % (reversal of tactile hyperalgesia)” value ([1]; 14.7 mg/kg i.p. BID, d 3-0.5 h) was 36.8 ± 2.41 %. For the same compound, the “MPE % (reversal of tactile hyperalgesia)” value ([1]; 14.7 mg/kg i.p. BID, d 4-0.5 h) was 34.5 ± 3.27 %, the “MPE % (reversal of tactile hyperalgesia)” value ([1]; 14.7 mg/kg i.p. BID, d 5-0.5 h (last day of treatment)) was 22.8 ± 5.29 % and the “MPE % (reversal of tactile hyperalgesia)” value ([1]; 14.7 mg/kg i.p. BID, d 5-0.5 h (last day of treatment), listed as tapentadol) was 22.8±5.29%. The “MPE % (reversal of tactile hyperalgesia)” value ([1]; 14.7 mg/kg i.p. BID, pre-d 3 (before administration, day 3)) was −0.6 ± 2.21 n.s. %, the “MPE % (reversal of tactile hyperalgesia)” value ([1]; 14.7 mg/kg i.p. BID, pre-d 4) was −6.00 ± 1.63 % and the “MPE % (reversal of tactile hyperalgesia)” value ([1]; 14.7 mg/kg i.p. BID, pre-d 5) was −6.60 ± 1.67 %. For the same compound, the “remaining efficacy as % of the efficacy after substance treatment on day 5” value ([1]; after 7 days of washout) was 39%, the “remaining efficacy as % of the efficacy after substance treatment on day 5” value ([1]; day 9 (washout)) was 74% and the “MPE % (reversal of tactile hyperalgesia)” value ([1]; pre-d 8, washout phase (third day of washout) after 14.7 mg/kg i.p. BID day 1-5) was 2.60 ± 2.51 n.s. %. The “MPE % (reversal of tactile hyperalgesia)” value ([1]; pre-d 8, washout phase (third day of washout) after 14.7 mg/kg i.p. BID day 1-5, listed as tapentadol) was 3%, the “MPE % (reversal of tactile hyperalgesia)” value ([1]; pre-d 10, washout phase after 14.7 mg/kg i.p. BID day 1-5) was 11.4 ± 3.21 % and the “MPE % (reversal of tactile hyperalgesia)” value ([1]; pre-d 11, washout phase after 14.7 mg/kg i.p. BID day 1-5) was 8.90 ± 2.59 %. For the same compound, the “MPE % (reversal of tactile hyperalgesia)” value ([1]; pre_d 9, washout phase after 14.7 mg/kg i.p. BID day 1-5) was 17.2 ± 3.43 %, the “MPE % (reversal of tactile hyperalgesia)” value ([1]; pre_d 9, washout phase after 14.7 mg/kg i.p. BID day 1-5, listed as tapentadol) was 17% and the “MPE % (reversal of tactile hyperalgesia)” value ([1]; pre_d 12, washout phase (7 days of washout) after 14.7 mg/kg i.p. BID day 1-5) was 8.60 ± 3.94 %. The “MPE % (reversal of tactile hyperalgesia)” value ([1]; pre_d 12, washout phase (7 days of washout) after 14.7 mg/kg i.p. BID day 1-5, listed as tapentadol) was 9%.
